Patent US20080274544A1, “Promotor for Introducing Extracellular Substance into Mammalian Ovum and Introduction Method” (priority 2005, published 2008)
Entries after “also recorded” stand apart in the source; their conditions may differ.

What was measured:
[1] = tested on: zona pellucida-free mouse unfertilized oocytes; assay: In vitro fertilization of zona pellucida-free oocytes, sperm-oocyte fusion; assay type: cell-based; details: for number of sperm which fused with the oocytes: zona pellucida-free oocytes, 1 hr after insemination, oocytes cultured 1 hr in 20 μM vinblastine or 10 μM paclitaxel, compared with untreated control (FIG. 1)
Protocol: (§1) • (1) Mice of eight week-old or older were purchased and made adapted to grow environment for 1 week before use. PMS (Serotoropin exclusive to animal, manufactured by ASUKA Pharmaceutical) was injected in an amount of 0.1 ml into the abdominal cavity of the mouse at 8:00 pm. • (2) 48 hr later, HCG (Gonadotropin exclusive to animal, manufactured by ASUKA Pharmaceutical) was injected in an amount of 0.1 ml into the abdominal cavity. • (3) Mice were euthanized the next day (14 to 16 hr after HCG injection), and the ampulla of oviduct was removed. An oocyte surrounded by cumulus cells was collected and cultured in a (100 μL) drop of TYH medium. • (4) Cumulus cells were removed by hyaluronidase (300 μg/mL) treatment, then the oocyte was cultured in TYH medium for 3 hr. In the case of conducting removal of zona pellucida, oocyte zona pellucida was removed by an acid Tyrode's solution treatment followed by culturing the oocyte in TYH medium for 3 hr. 2. Treatment with a Tubulin-Polymerization Inhibitor
(§2) The collected unfertilized oocyte of the mice was treated by using vinblastine (VB) as a tubulin-polymerization inhibitor. As controls, an oocyte treated with paclitaxel (Pac; Brand Name: taxol), tubulin-polymerization promoter, and an untreated oocyte (control) were used. Vinblastine (VB) treatment was conducted by culturing the oocyte in 20 μM of vinblastine solution (TYH medium) for 1 hr, while paclitaxel (Pac) treatment was conducted by culturing the oocyte in 10 μM of paclitaxelel (Pac) solution (TYH medium) similarly for 1 hr.
The mouse unfertilized oocyte was treated with vinblastine (VB), a tubulin-polymerization inhibitor, and in vitro fertilization was conducted with mouse sperm. […]
(In the case where zona pellucida-free oocytes were use): To quantify sperm-oocyte fusion efficiency, zona pellucida-free mouse unfertilized oocytes were treated with vinblastine (VB), a tubulin-polymerization inhibitor, or paclitaxel (Pac), tubulin-polymerization promoter, or left untreated (control). […]

[2] = tested on: mouse unfertilized oocytes with zona pellucida; assay: In vitro fertilization of oocytes with zona pellucida, fertilization efficiency; assay type: cell-based
Protocol: as §1, §2
The mouse unfertilized oocyte was treated with vinblastine (VB), a tubulin-polymerization inhibitor, and in vitro fertilization was conducted with mouse sperm. As controls, an unfertilized oocyte treated with paclitaxel (Pac; Brand Name: taxol), tubulin-polymerization promoter, and an untreated oocyte (control) were used. […]

CC(=O)O[C@H]1C(=O)[C@@]2(C)[C@H]([C@H](OC(=O)c3ccccc3)[C@]3(O)C[C@H](OC(=O)[C@H](O)[C@@H](NC(=O)c4ccccc4)c4ccccc4)C(C)=C1C3(C)C)[C@]1(OC(C)=O)CO[C@@H]1C[C@@H]2O [paclitaxel]
sperm-oocyte membrane fusion ([1]; mouse unfertilized oocyte treated with tubulin-polymerization promoter): inhibited | number of sperm which fused with the oocytes [1]: not fused

CC[C@]1(O)C[C@@H]2CN(CCc3c([nH]c4ccccc34)[C@@](C(=O)OC)(c3cc4c(cc3OC)N(C)[C@H]3[C@@](O)(C(=O)OC)[C@H](OC(C)=O)[C@]5(CC)C=CCN6CC[C@]43[C@@H]65)C2)C1 [vinblastine]
number of sperm which fused with the oocytes [1]: largest number | increase of fertilization efficiency compared to untreated oocytes ([2]; 2-cell-stage oocytes, oocytes cultured 1 hr in 20 μM vinblastine (FIG. 2)): 20% | fusion efficiency of oocytes treated with anti-mouse CD9 antibody having a fusion-inhibitory effect ([2]; vinblastine treatment together with anti-mouse CD9 antibody): increased | fusion of immature oocytes with sperm ([2]; vinblastine-treated immature oocytes): could be fused with sperm; also recorded: could fuse with sperm
